The assay has as its system PC3 cells, HSV G47-delta CPE, CellTiter-Glo, 96 h. Briefly: augmentation of HSV G47-delta CPE in PC3 cells – cell-based, CellTiter-Glo, secondary, confirmation (AID 588782).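 As to CPE increase: percent rise in virus-caused cell damage over infected cultures given no drug.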 The following applies: for outcome / CPE increase: at 10 µM; for CC50: measured here: PC3 cytotoxicity; for CPE increase: stronger effect = higher value. For orientation: In ATP-based viability assays light output follows the ATP content of the culture.

We go through 26 compounds from PubChem BioAssay AID588782 (Southern Research Specialized Biocontainment Screening …, 2011).

Several values for one entry are separate records, joined by “and”; a condition that tells them apart may be missing. Equal entries are not always repeated. Activity calls are given as the source filed them.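 The calls were made as follows: active = virus-caused cell damage raised over twofold versus untreated cells in three repeats, without toxicity at overlapping doses; inactive = the rest.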

Turning to `COc1cc(COCCCN2CCCN(CCCOCc3cc(OC)c(OC)c(OC)c3)CC2)cc(OC)c1OC`, the outcome was inactive and the CC50 (usually the concentration that lowers cell viability or growth by half) was > 100 µM.

`COc1cc(C(=O)OCCN2CCCC2)cc(OC)c1OC`: the outcome was inactive and the CC50 was > 100 µM.

In the case of `COc1cccc(C(=O)NCCCN2CCN(CCCNC(=O)c3cccc(OC)c3)CC2)c1`, the result was inactive and the half-maximal cytotoxic concentration (CC50) was > 100 µM.

Consider `COc1cc(C(=O)OCCN2CCCN(Cc3ccccc3)CC2)cc(OC)c1OC`, for which the outcome was inactive and the CC50 was > 100 µM.

As for `COc1ccc(C(=O)NCCCN2CCCN(C)CC2)cc1`, the result was inactive and the CC50 is > 100 µM.

Regarding `COc1cc(C(=O)OCCCN2CCN(C)CC2)cc(OC)c1OC`, the result was inactive and the cytotoxic concentration (CC50) was > 100 µM.

Turning to `O=C(OCCCN1CCCN(CCCOC(=O)c2ccccc2)CC1)c1ccccc1`, the outcome was inactive and the half-maximal cytotoxic concentration (CC50) was > 100 µM.

As to `O=C(CN1CCCN(CC(=O)CN2C(=O)c3ccccc3C2=O)CC1)CN1C(=O)c2ccccc2C1=O`, the result was inactive and the CC50 was > 100 µM.

Take `COc1cc(C(=O)NCCCN2CCCN(CCCNC(=O)c3cc(OC)c(OC)c(OC)c3)CC2)cc(OC)c1OC`: the CPE increase is 16% (inactive) and the CC50 was > 100 µM.

Turning to `CN1CCCN(CCCOC(=O)c2ccccc2)CC1`, the outcome was inactive and the CC50 was > 100 µM.

In the case of `O=C(NCCCN1CCN(CCCNC(=O)c2ccc3c(c2)OCO3)CC1)c1ccc2c(c1)OCO2`, the CPE increase was 14.4% (inactive) and the half-maximal cytotoxic concentration (CC50) is > 100 µM.

For the compound `COc1ccc(C(=O)OCCN2CCN(CCOC(=O)c3ccc(OC)cc3)CC2)cc1`, the outcome was inactive and the CC50 was > 100 µM.

Take `COc1ccc(C(=O)OCCN2CCN(C)CC2)cc1`: the result was inactive and the CC50 was > 100 µM.

For `COc1cc(OC)cc(C(=O)OCCN2CCOCC2)c1`, the outcome was inactive and the half-maximal cytotoxic concentration (CC50) is > 100 µM.

`COc1cc(OC)cc(C(=O)OCCCNCCNCCCOC(=O)c2cc(OC)cc(OC)c2)c1`: the CPE increase is 15.8% (inactive) and the CC50 is 32.1 µM.

In the case of `COc1cc(C(=O)OCCCN(C)CCN(C)CCCOC(=O)c2cc(OC)c(OC)c(OC)c2)cc(OC)c1OC`, the outcome was inactive and the 50% cytotoxic concentration (CC50) was > 100 µM.

As to `COc1cc(C(=O)OCCCN2CCCN(CCCOC(=O)c3cc(OC)c(OC)c(OC)c3)CC2)cc(OC)c1OC`, the result was inactive and the CC50 is > 100 µM.

For `COc1cc(C(=O)OCCN2CCCN(C)CC2)cc(OC)c1OC`, the outcome was inactive and the CC50 is > 100 µM.

For `COc1ccc(C(=O)OCCN2CCCN(C)CC2)cc1`, the CPE increase is 27.1% (inactive) and the half-maximal cytotoxic concentration (CC50) was > 100 µM.

Regarding `COc1cc(C(=O)N2CCCN(C(=O)c3cc(OC)c(OC)c(OC)c3)CC2)cc(OC)c1OC`, the outcome was inactive and the CC50 was > 100 µM.

Regarding `COc1ccc(C(=O)OCCCN2CCOCC2)cc1`, the CPE increase was 16.9% (inactive) and the half-maximal cytotoxic concentration (CC50) was > 100 µM.

On to `O=C(OCCCN1CCCN(CCCOC(=O)c2ccc(F)cc2)CC1)c1ccc(F)cc1`, for which the result was inactive and the cytotoxic concentration (CC50) worked out at 66.9 µM.

Turning to `COc1ccc(C(=O)OCCCNCCNCCCOC(=O)c2ccc(OC)cc2)cc1`, the outcome was inactive; the CPE increase was 19.8% (inactive); the half-maximal cytotoxic concentration (CC50) is > 93 µM and 21.7 µM.

For `COc1cc(C(=O)OCCN2CCOCC2)cc(OC)c1OC`, the outcome was inactive and the 50% cytotoxic concentration (CC50) is > 100 µM.

On to `CN1CCN(CCCOC(=O)c2ccccc2)CC1`, for which the outcome was inactive and the CC50 is > 100 µM.

Take `COc1ccc(N2C(=O)CC(N3CCCN(C4CC(=O)N(c5ccc(OC)cc5)C4=O)CC3)C2=O)cc1` (stereo not drawn): the result was inactive and the half-maximal cytotoxic concentration (CC50) is > 100 µM.
